Laboratory results taken from the CheMixHub ionic liquid set.

Assay: xn = mol fraction of the nth substance listed
Conditions: for electrical conductivity: frequency 0.0005 MHz

CC[n+]1ccn(C)c1.COS(=O)(=O)[O-] + CS(C)=O
viscosity [mPa·s], 100 kPa
Conditions	298.15 K	303.15 K	308.15 K	313.15 K
x1 = 0.0164	4.16	4.01	3.89	3.67
x1 = 0.0398	7.35	6.81	6.27	5.93
x1 = 0.0602	9.97	9.2	8.55	8.08
x1 = 0.0941	14.18	12.83	12.06	11.28
x1 = 0.1236	17.62	15.85	14.5	13.71
x1 = 0.1519	20.91	18.59	16.92	16.1
x1 = 0.2143	27.4	24.2	21.94	20.73
x1 = 0.2927	34.95	30.43	27.28	25.55
x1 = 0.3737	41.96	36.24	32.09	29.71
x1 = 0.4429	47.4	40.66	35.66	32.71
x1 = 0.5298	53.6	45.69	39.54	35.84
x1 = 0.6072	58.8	49.5	42.55	38.23
x1 = 0.6927	64.3	53.7	45.77	40.24
x1 = 0.7486	67.7	56.3	47.7	41.57
x1 = 0.8263	72.7	60	50.3	43.32
x1 = 0.8944	77	63.2	52.7	44.81
x1 = 0.9396	80.1	65.5	54.3	45.96
x1 = 0.9755	82.5	67.4	55.7	46.87
x1 = 1	84.3	68.7	56.7	47.6

CCCCCCCC(=O)[O-].c1c[nH+]c[nH]1 + O
101.3 kPa
Conditions	viscosity [mPa·s]
293.15 K, x2 = 0.3042	53.53
293.15 K, x2 = 0.4091	50.43
293.15 K, x2 = 0.6017	39.83
298.15 K, x2 = 0.5119	37.4
298.15 K, x2 = 0.7995	18.69
303.15 K, x2 = 0.3042	34.6
303.15 K, x2 = 0.6643	24.26
313.15 K, x2 = 0.1964	24.17
313.15 K, x2 = 0.8154	10.93
318.15 K, x2 = 0.0989	23.17
318.15 K, x2 = 0.3042	19.22
318.15 K, x2 = 0.6017	16.16
318.15 K, x2 = 0.8154	9.92
323.15 K, x2 = 0	25.33
323.15 K, x2 = 0.0989	19.77
323.15 K, x2 = 0.3042	16.85
323.15 K, x2 = 0.8154	9.3

CCCCCCCCOS(=O)(=O)[O-].CC[n+]1ccn(C)c1 + O + O=S(=O)([O-])[O-].[Li+].[Li+]
101 kPa, x2 = 0.8284, x3 = 0.003275
Conditions	electrical conductivity [S/m]	viscosity [mPa·s]
283.15 K	0.479	–
285.15 K	0.518	–
287.15 K	0.561	–
288.15 K	0.582	–
289.15 K	0.605	–
291.15 K	0.649	–
293.15 K	0.698	101
296.15 K	–	85.2
298.15 K	0.83	76.4
303.15 K	0.975	58.9
308.15 K	–	46.1
313.15 K	1.31	–
318.15 K	–	29.59
323.15 K	1.68	–
328.15 K	–	19.97
333.15 K	2.1	–
338.15 K	–	14.04
343.15 K	2.62	–
348.15 K	2.87	–
358.15 K	3.41	–
363.15 K	3.68	–

CCC[P+](c1ccccc1)(c1ccccc1)c1ccccc1.[Br-] + O=S=O + OCCO
100 kPa
Conditions	viscosity [mPa·s]
303.15 K, x2 = 0.01565, x3 = 0.9603	20.6
313.15 K, x2 = 0.01166, x3 = 0.9642	17
323.15 K, x2 = 0.009018, x3 = 0.9668	14.1
333.15 K, x2 = 0.007838, x3 = 0.968	11.6
343.15 K, x2 = 0.006951, x3 = 0.9688	10.5

CCCCCCCCn1cc[n+](C)c1C.F[P-](F)(F)(F)(F)F + CCCCCCCC[n+]1ccn(C)c1.F[P-](F)(F)(F)(F)F
100 kPa, x2 = 0.5
Conditions	viscosity [mPa·s]
333.15 K	90.3
343.15 K	60.9
353.15 K	44.5

CCCCCC[n+]1ccn(C)c1.[Br-] + CC(=O)Oc1ccccc1C(=O)O + CC#N
viscosity [mPa·s], 101 kPa
Conditions	288.15 K	298.15 K	308.15 K	318.15 K
x2 = 0, x1 = 0.004174	0.403	0.364	0.333	0.306
x2 = 0, x1 = 0.008131	0.424	0.383	0.35	0.322
x2 = 0, x1 = 0.01172	0.424	0.389	0.371	0.342

CCCCC(=O)[O-].CC[NH+](CC)CCO + CCCC[n+]1ccn(C)c1.COP(=O)([O-])OC
101 kPa
Conditions	viscosity [mPa·s]
278.15 K, x1 = 0.6984	216.8
283.15 K, x1 = 0.4973	226.8
288.15 K, x1 = 0.1018	874
293.15 K, x1 = 0.1018	594
298.15 K, x1 = 0.1952	271.2
298.15 K, x1 = 0.5989	76
298.15 K, x1 = 0.7978	58.54
303.15 K, x1 = 0.1952	199.9
303.15 K, x1 = 0.3029	132
303.15 K, x1 = 1	37.12
308.15 K, x1 = 0.1952	150.4
308.15 K, x1 = 0.5989	46.85
313.15 K, x1 = 0.3029	79.5
313.15 K, x1 = 0.4003	58.57
313.15 K, x1 = 0.5989	37.62
313.15 K, x1 = 0.8868	26.19
318.15 K, x1 = 0.1952	90.1
318.15 K, x1 = 0.4003	47.13
318.15 K, x1 = 0.5989	30.62
318.15 K, x1 = 0.6984	26.67
323.15 K, x1 = 0.7978	19.5
328.15 K, x1 = 0.4973	25.35
328.15 K, x1 = 0.5989	21.04
328.15 K, x1 = 0.6984	18.34
333.15 K, x1 = 0.1018	62.36
333.15 K, x1 = 0.3029	34.47
333.15 K, x1 = 0.4003	26.54
333.15 K, x1 = 0.8868	12.34
333.15 K, x1 = 1	10.94
338.15 K, x1 = 0.1952	38.69
338.15 K, x1 = 0.4973	18.07
338.15 K, x1 = 0.5989	15.08
343.15 K, x1 = 0.4003	19.11
343.15 K, x1 = 0.4973	15.48
343.15 K, x1 = 0.6984	11.27
348.15 K, x1 = 0.5989	11.19
353.15 K, x1 = 0.5989	9.76
358.15 K, x1 = 0.8868	5.91
358.15 K, x1 = 1	5.15
363.15 K, x1 = 0.1018	21.41
363.15 K, x1 = 0.6984	6.56
373.15 K, x1 = 0.4003	8.6
373.15 K, x1 = 1	3.53

CC[n+]1ccn(CCOC)c1.O=S(=O)([O-])C(F)(F)F + CC(C)O
viscosity [mPa·s], 101 kPa
Conditions	x1 = 0.0997	x1 = 0.2004	x1 = 0.3004	x1 = 0.4003	x1 = 0.5004	x1 = 0.601	x1 = 0.7	x1 = 0.8	x1 = 0.9	x1 = 1
288.15 K	4.72	7.33	10.86	16.19	21.8	33.6	47.3	64.2	85.2	121
293.15 K	4.047	6.23	9.17	13.53	18.15	27.6	38	51.3	65.2	92.5
298.15 K	3.489	5.36	7.83	11.45	15.16	22.88	31.09	41.4	52.2	72.5
303.15 K	3.03	4.64	6.75	9.8	12.85	19.27	25.81	33.89	42.7	57.9
308.15 K	2.654	4.06	5.87	8.47	11.07	16.64	21.71	28.27	35.58	47.3
313.15 K	2.336	3.599	5.15	7.38	9.64	14.32	18.62	23.79	30.09	39
318.15 K	2.068	3.192	4.55	6.49	8.54	12.42	16.2	20.22	25.83	32.59

CCCCCC[n+]1ccn(C)c1.[Br-] + CC#N
viscosity [mPa·s], 101 kPa
Conditions	288.15 K	298.15 K	308.15 K	318.15 K
x1 = 0.004174	0.403	0.364	0.333	0.306
x1 = 0.008131	0.424	0.383	0.35	0.322
x1 = 0.01172	0.424	0.389	0.371	0.342

NC=O + CCCC[n+]1ccn(C)c1.F[B-](F)(F)F
101 kPa
Conditions	viscosity [mPa·s]
293.15 K, x2 = 0	3.66
293.15 K, x2 = 0.2758	10.51
293.15 K, x2 = 0.3629	16.75
293.15 K, x2 = 0.5095	31.8
293.15 K, x2 = 0.569	39.6
298.15 K, x2 = 0.2758	9.47
298.15 K, x2 = 0.7588	56.7
298.15 K, x2 = 0.8107	64.8
303.15 K, x2 = 0.4499	17.48
303.15 K, x2 = 0.8107	50.9
303.15 K, x2 = 0.8626	57.3
303.15 K, x2 = 0.9313	66.4
308.15 K, x2 = 0.2758	7.5
308.15 K, x2 = 0.4499	14.74
308.15 K, x2 = 0.9313	51.2
313.15 K, x2 = 0.2054	4.61
313.15 K, x2 = 0.3629	8.75
313.15 K, x2 = 0.4499	11.81
318.15 K, x2 = 0.2758	5.08
318.15 K, x2 = 0.569	14.1
318.15 K, x2 = 0.6639	18.31
318.15 K, x2 = 0.8626	29.35

CCCCCCCCOS(=O)(=O)[O-].CC[n+]1ccn(C)c1 + O
101 kPa
Conditions	electrical conductivity [S/m]	viscosity [mPa·s]
263.15 K, x2 = 0.8103	0.26	–
288.15 K, x2 = 0.7822	0.678	–
298.15 K, x2 = 0.8236	1.14	63.5
303.15 K, x2 = 0.8236	1.32	48.9
303.15 K, x2 = 0.8384	1.52	46
313.15 K, x2 = 0.8103	1.65	32.07
323.15 K, x2 = 0.8236	2.2	–
333.15 K, x2 = 0.7822	2.4	15.7
333.15 K, x2 = 0.8236	2.77	–
343.15 K, x2 = 0.7822	2.9	11.31
